Key:
myeloma cell line LP-1 = test: tetrazolium reduction (Promega MTS) assay with isobologram analysis, LP-1; assay type: cell-based, human
Protocol: (§1) We investigated the cytotoxic effect of the HMG-CoA reductase inhibitor fluvastatin on the human multiple myeloma cell lines LP-1, OPM-2, U266, NCI-H929 and RPMI-8226 in vitro using a tetrazolium reduction assay. After 3 days culture in the presence of 0 to 50 μM fluvastatin, the Promega MTS assay reagent was used to determine the level of inhibition of cell proliferation and/or cell death.
(§2) Using the same assay we investigated whether the activity of fluvastatin against multiple myeloma in vitro could be enhanced by the addition of the bisphosphonate Zometa® (zoledronic acid). Using 80% cell inhibition as an end point, isobolograms were constructed to visualize the interaction between fluvastatin and Zometa®.

U266 = test: tetrazolium reduction (Promega MTS) assay, U266; assay type: cell-based, human; settings: 3 days culture
Protocol: as §1

OPM-2 = test: tetrazolium reduction (Promega MTS) assay, OPM-2; assay type: cell-based, human; settings: 3 days culture
Protocol: as §1

[1] = test system: human multiple myeloma cell lines LP-1, OPM-2, U266, NCI-H929 and RPMI-8226; test: tetrazolium reduction (Promega MTS) assay of cell proliferation and/or cell death, myeloma cell line panel; assay type: cell-based; settings: 3 days culture, p<0.05 by paired Student's t-test
Protocol: as §1
as §2, with “Zometa®. […] To illustrate this point, >50 μM fluvastatin or […] Zometa® alone was required to induce 80% cell death in the myeloma cell line LP-1 but the combination of 25 μM fluvastatin and 0.21 μM Zometa® had the same effect.” for “Zometa®.”

Row | Compound | concentration required to induce 80% cell death (myeloma cell line LP-1; Zometa alone) [µM] | concentration required to induce 80% cell death (myeloma cell line LP-1; fluvastatin alone) [µM] | inhibition at 50 μM (U266) [%] | inhibition at 50 μM (OPM-2) [%] | inhibition of proliferation ([1]; 25 μM and 50 μM, all cell lines) | fluvastatin concentration as low as which significantly inhibited proliferation ([1]; all cell lines except RPMI-8226) [µM]
1 | O=P(O)(O)C(O)(Cn1ccnc1)P(=O)(O)O [Zometa®, 2-(imidazol-1yl)-1-hydroxyethane-1,1-diphosphonic acid] | > 100 |  |  |  |  | 
2 | CC(C)n1c(/C=C/C(O)CC(O)CC(=O)O)c(-c2ccc(F)cc2)c2ccccc21 (stereo not drawn) [fluvastatin] |  | > 50 | 45 | > 90 | significantly inhibited proliferation | 2.5

From patent US20060234985A1, “Combination therapy comprising a bisphosphonate and a hmg-coa reductase inhibitor” (priority 2002, published 2006)
